From US10744136B2, “Sulfonamide derivatives as JAK inhibitors” (Avista Pharma Solutions, Inc., priority 2018, dated 2020)

Target: T1, JAK1 (Homo sapiens, UniProt P23458)
T1 construct: purchased Thermo Fisher Scientific
Assay: Z'-LYTE JAK1 kinase screen (Thermo Fisher Scientific)
Assay type: biochemical
Conditions: 1% DMSO, ATP at Km apparent; for % Inhibition 10 nM / inhibition at 0.01 µM: test compound 10 nM; for % Inhibition 10 nM: 0.01 µM; for % Inhibition 100 nM / inhibition at 0.1 µM: test compound 100 nM; for % Inhibition 100 nM: 0.1 µM; for % Inhibition 1000 nm: test compound 1000 nm (so in the source)
Protocol: The example compounds were screened for Jak1 activity at Thermo Fisher Scientific, using their Z′-Lyte™ protocol, as described below. Selectivity screening against other kinases can be performed following similar procedures. Z′-LYTE Assay Conditions: The Test Compounds are screened in 1% DMSO (final) in the well. Three screening concentrations (10, 100, and 1000 nM) of test compounds were used. Peptide/Kinase Mixtures: All Peptide/Kinase Mixtures are diluted to a 2× working concentration in the appropriate Kinase Buffer (For JAK1, the 2×JAK1/Tyr 06 mixture is prepared in 50 mM HEPES pH 6.5, 0.01% BRIJ-35, 10 mM MgCl2, 1 mM EGTA, 0.02% NaN3. The final 10 μL Kinase Reaction consists of 21.2-91.5 ng JAK1 and 2 μM Tyr 06 in 50 mM HEPES pH 7.0, 0.01% BRIJ-35, 10 mM MgCl2, 1 mM EGTA, 0.01% NaN3. After the 1 hour Kinase Reaction incubation, 5 μL of a 1:128 dilution of Development Reagent A is added). ATP Solution: All ATP Solutions are diluted to a 4× working concentration in Kinase Buffer (50 mM HEPES pH 7.5, 0.01% BRIJ-35, 10 mM MgCl2, 1 mM EGTA). ATP: Km apparent is previously determined using a Z′-LYTE assay. 10× Novel PKC Lipid Mix: 2 mg/ml Phosphatidyl Serine, 0.2 mg/ml DAG in 20 mM HEPES, pH 7.4, 0.3% CHAPS. For 5 mL 10× Novel PKC Lipid Mix: • 1. Add 10 mgs Phosphatidyl Serine (Avanti Polar Lipids Part #8400032C or 840039C) and 1 mg DAG (Avanti Polar Lipids Part #800811C) to a glass tube. • 2. Remove the chloroform from lipid mixture by evaporating to a clear, thin film under a stream of nitrogen. Continuous rotation of the tube, at an angle to ensure maximum surface area of the lipid solution, will promote the thinnest film. • 3. Add 5 mLs resuspension buffer, 20 mM HEPES, 0.3% CHAPS, pH 7.4, to the dried lipid mix • 4. Heat gently to 50-60° C. for 1-2 minutes and vortex in short intervals until the lipids are dissolved to a clear or slightly hazy solution. The lipids are typically in solution after 2-3 heat/vortex cycles. • 5. Cool to room temperature, aliquot into single use volumes and store at −20° C. Assay Protocol Bar-coded Corning, low volume NBS, black 384-well plate (Corning Cat. #4514) • 1. 100 nL—100× Test Compound in 100% DMSO • 2. 2.4 μL—Kinase buffer • 3. 5 μL—2× Peptide/Kinase Mixture • 4. 2.5 μL—4×ATP Solution • 5. 30-second plate shake • 6. 60-minute Kinase Reaction incubation at room temperature • 7. 5 μL—Development Reagent Solution • 8. 30-second plate shake • 9. 60-minute Development Reaction incubation at room temperature • 10. Read on fluorescence plate reader and analyze the data.

T1 sequence (P23458 whole entry): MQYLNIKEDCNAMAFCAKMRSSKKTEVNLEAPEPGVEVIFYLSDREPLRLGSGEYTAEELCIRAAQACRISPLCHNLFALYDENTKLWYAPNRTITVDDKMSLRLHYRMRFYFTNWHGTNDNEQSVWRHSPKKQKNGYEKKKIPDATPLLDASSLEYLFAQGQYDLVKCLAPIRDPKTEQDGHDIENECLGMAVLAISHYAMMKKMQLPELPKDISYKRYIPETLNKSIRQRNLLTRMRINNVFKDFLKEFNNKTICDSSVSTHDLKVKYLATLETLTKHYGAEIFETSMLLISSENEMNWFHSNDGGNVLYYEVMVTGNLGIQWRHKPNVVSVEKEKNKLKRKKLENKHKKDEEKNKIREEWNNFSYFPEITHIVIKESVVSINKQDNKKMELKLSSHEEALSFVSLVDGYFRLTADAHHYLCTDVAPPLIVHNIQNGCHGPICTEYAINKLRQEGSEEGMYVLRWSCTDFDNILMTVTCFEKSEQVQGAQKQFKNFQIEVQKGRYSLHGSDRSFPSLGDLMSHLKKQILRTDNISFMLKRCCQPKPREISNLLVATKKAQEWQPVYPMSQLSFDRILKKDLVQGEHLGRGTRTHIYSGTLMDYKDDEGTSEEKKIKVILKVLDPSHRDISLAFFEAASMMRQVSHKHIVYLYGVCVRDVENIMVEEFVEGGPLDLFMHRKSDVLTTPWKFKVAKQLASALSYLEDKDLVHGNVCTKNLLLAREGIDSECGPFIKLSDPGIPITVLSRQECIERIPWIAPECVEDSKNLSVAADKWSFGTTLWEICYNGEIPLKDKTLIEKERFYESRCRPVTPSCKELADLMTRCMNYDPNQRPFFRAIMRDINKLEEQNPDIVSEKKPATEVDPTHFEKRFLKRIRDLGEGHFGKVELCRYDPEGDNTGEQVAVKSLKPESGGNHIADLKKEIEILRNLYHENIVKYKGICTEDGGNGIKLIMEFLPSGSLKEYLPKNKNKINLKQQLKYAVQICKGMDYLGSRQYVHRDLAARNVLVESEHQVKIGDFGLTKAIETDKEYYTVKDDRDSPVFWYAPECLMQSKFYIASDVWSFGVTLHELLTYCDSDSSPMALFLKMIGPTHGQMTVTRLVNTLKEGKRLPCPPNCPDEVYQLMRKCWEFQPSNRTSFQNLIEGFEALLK

**Q.** For `CNS(=O)(=O)C1CC2(CC(N(C)c3ncnc4[nH]ccc34)C2)C1` (single isomer, unassigned; enantiomer a) [Compound 26, (Enantiomer A)-N-methyl-6-[methyl(7H-pyrrolo[2,3-d]pyrimidin-4-yl)amino]spiro[3.3]heptane-2-sulfonamide], which “% Inhibition 10 nM” value is on record?
**A.** 77%

**Q.** What about the “% Inhibition 100 nM” value of the same compound?
**A.** 96%

**Q.** And the “% Inhibition 1000 nm” value?
**A.** 98%

**Q.** What does the source list for `CNS(=O)(=O)C1CC2(CC(N(C)c3ncnc4[nH]ccc34)C2)C1` (single isomer, unassigned; enantiomer b) [Compound 27, (Enantiomer B)-N-methyl-6-[methyl(7H-pyrrolo[2,3-d]pyrimidin-4-yl)amino]spiro[3.3]heptane-2-sulfonamide]?
**A.** % Inhibition 10 nM: 12%; % Inhibition 100 nM: 52%; % Inhibition 1000 nm: 89%

**Q.** Which inhibition at 0.01 µM does the source give for `CNS(=O)(=O)C1CC2(CC(N(C)c3ncnc4[nH]ccc34)C2)C1` (stereo not drawn) [Compound 1, N-methyl-6-[methyl(7H-pyrrolo[2,3-d]pyrimidin-4-yl)amino]spiro[3.3]heptane-2-sulfonamide] here?
**A.** 71%

**Q.** And the inhibition at 0.1 µM?
**A.** 92%

**Q.** And the “% Inhibition 1000 nm” value?
**A.** 96%

**Q.** What does the source list for `CCNS(=O)(=O)C1CC2(CC(N(C)c3ncnc4[nH]ccc34)C2)C1` (stereo not drawn) [Compound 2, N-ethyl-6-[methyl(7H-pyrrolo[2,3-d]pyrimidin-4-yl)amino]spiro[3.3]heptane-2-sulfonamide]?
**A.** inhibition at 0.01 µM: 52%; inhibition at 0.1 µM: 90%; % Inhibition 1000 nm: 98%

**Q.** With `CCCNS(=O)(=O)C1CC2(CC(N(C)c3ncnc4[nH]ccc34)C2)C1` (stereo not drawn) [Compound 3, 6-[methyl(7H-pyrrolo[2,3-d]pyrimidin-4-yl)amino]-N-propyl-spiro[3.3]heptane-2-sulfonamide] as the compound, how does the inhibition at 0.01 µM read?
**A.** 57%

**Q.** And the inhibition at 0.1 µM?
**A.** 92%

**Q.** And the “% Inhibition 1000 nm” value?
**A.** 98%

**Q.** What does the source list for `CC(C)NS(=O)(=O)C1CC2(CC(N(C)c3ncnc4[nH]ccc34)C2)C1` (stereo not drawn) [Compound 4, N-isopropyl-6-[methyl(7H-pyrrolo[2,3-d]pyrimidin-4-yl)amino]spiro[3.3]heptane-2-sulfonamide]?
**A.** inhibition at 0.01 µM: 23%; inhibition at 0.1 µM: 75%; % Inhibition 1000 nm: 95%

**Q.** For `CN(c1ncnc2[nH]ccc12)C1CC2(C1)CC(S(=O)(=O)NC1CC1)C2` (stereo not drawn) [Compound 5, N-cyclopropyl-6-[methyl(7H-pyrrolo[2,3-d]pyrimidin-4-yl)amino]spiro[3.3]heptane-2-sulfonamide], which inhibition at 0.01 µM is on record?
**A.** 61%

**Q.** What about the inhibition at 0.1 µM of the same compound?
**A.** 94%

**Q.** What about the “% Inhibition 1000 nm” value of the same compound?
**A.** 99%

**Q.** For `CN(c1ncnc2[nH]ccc12)C1CC2(C1)CC(S(=O)(=O)NCC(F)(F)F)C2` (stereo not drawn) [Compound 6, 6-[methyl(7H-pyrrolo[2,3-d]pyrimidin-4-yl)amino]-N-(2,2,2-trifluoroethyl)spiro[3.3]heptane-2-sulfonamide], which inhibition at 0.01 µM is on record?
**A.** 63%

**Q.** And the inhibition at 0.1 µM?
**A.** 93%

**Q.** And the “% Inhibition 1000 nm” value?
**A.** 96%

**Q.** `CC(C)CNS(=O)(=O)C1CC2(CC(N(C)c3ncnc4[nH]ccc34)C2)C1` (stereo not drawn) [Compound 7, N-isobutyl-6-[methyl(7H-pyrrolo[2,3-d]pyrimidin-4-yl)amino]spiro[3.3]heptane-2-sulfonamide] was tested. Which inhibition at 0.01 µM did it give?
**A.** 42%

**Q.** And the inhibition at 0.1 µM?
**A.** 88%

**Q.** What about the “% Inhibition 1000 nm” value of the same compound?
**A.** 97%

**Q.** Which results are given for `CN(c1ncnc2[nH]ccc12)C1CC2(C1)CC(S(=O)(=O)NC(C)(C)C)C2` (stereo not drawn) [Compound 8, N-tert-butyl-6-[methyl(7H-pyrrolo[2,3-d]pyrimidin-4-yl)amino]spiro[3.3]heptane-2-sulfonamide]?
**A.** inhibition at 0.01 µM: 37%; inhibition at 0.1 µM: 82%; % Inhibition 1000 nm: 94%

**Q.** Which inhibition at 0.01 µM does the source give for `CN(c1ncnc2[nH]ccc12)C1CC2(C1)CC(S(=O)(=O)NC1CCC1)C2` (stereo not drawn) [Compound 9, N-cyclobutyl-6-[methyl(7H-pyrrolo[2,3-d]pyrimidin-4-yl)amino]spiro[3.3]heptane-2-sulfonamide] here?
**A.** 64%

**Q.** What about the inhibition at 0.1 µM of the same compound?
**A.** 93%

**Q.** What about the “% Inhibition 1000 nm” value of the same compound?
**A.** 99%

**Q.** How did the inhibition at 0.01 µM turn out when `CN(c1ncnc2[nH]ccc12)C1CC2(C1)CC(S(=O)(=O)NC1CCCC1)C2` (stereo not drawn) [Compound 10, N-cyclopentyl-6-[methyl(7H-pyrrolo[2,3-d]pyrimidin-4-yl)amino]spiro[3.3]heptane-2-sulfonamide] was run?
**A.** 52%

**Q.** What about the inhibition at 0.1 µM of the same compound?
**A.** 84%

**Q.** And the “% Inhibition 1000 nm” value?
**A.** 97%

**Q.** Which inhibition at 0.01 µM does the source give for `CN(c1ncnc2[nH]ccc12)C1CC2(CC(NS(=O)(=O)c3ccccc3)C2)C1` (stereo not drawn) [Compound 11, N-[2-[methyl(7H-pyrrolo[2,3-d]pyrimidin-4-yl)amino]spiro[3.3]heptan-6-yl]benzenesulfonamide] here?
**A.** 11%

**Q.** What about the inhibition at 0.1 µM of the same compound?
**A.** 81%

**Q.** And the “% Inhibition 1000 nm” value?
**A.** 95%

**Q.** What does the source list for `CN(c1ncnc2[nH]ccc12)C1CC2(CC(NS(=O)(=O)c3ccccc3Cl)C2)C1` (stereo not drawn) [Compound 12, 2-chloro-N-[2-[methyl(7H-pyrrolo[2,3-d]pyrimidin-4-yl)amino]spiro[3.3]heptan-6-yl]benzenesulfonamide]?
**A.** inhibition at 0.01 µM: 15%; inhibition at 0.1 µM: 60%; % Inhibition 1000 nm: 90%

**Q.** Which results are given for `CN(c1ncnc2[nH]ccc12)C1CC2(CC(NS(=O)(=O)c3ccc(Cl)cc3)C2)C1` (stereo not drawn) [Compound 13, 4-chloro-N-[2-[methyl(7H-pyrrolo[2,3-d]pyrimidin-4-yl)amino]spiro[3.3]heptan-6-yl]benzenesulfonamide]?
**A.** inhibition at 0.01 µM: 27%; inhibition at 0.1 µM: 77%; % Inhibition 1000 nm: 95%

**Q.** `CN(c1ncnc2[nH]ccc12)C1CC2(CC(NS(=O)(=O)c3ccc(C(F)(F)F)cc3)C2)C1` (stereo not drawn) [Compound 14, N-[2-[methyl(7H-pyrrolo[2,3-d]pyrimidin-4-yl)amino]spiro[3.3]heptan-6-yl]-4-(trifluoromethyl)benzenesulfonamide] was tested. Which inhibition at 0.01 µM did it give?
**A.** 1%

**Q.** What about the inhibition at 0.1 µM of the same compound?
**A.** 56%

**Q.** And the “% Inhibition 1000 nm” value?
**A.** 92%

**Q.** What does the source list for `CN(c1ncnc2[nH]ccc12)C1CC2(CC(NS(C)(=O)=O)C2)C1` (stereo not drawn) [Compound 15, N-[2-[methyl(7H-pyrrolo[2,3-d]pyrimidin-4-yl)amino]spiro[3.3]heptan-6-yl]methanesulfonamide]?
**A.** inhibition at 0.01 µM: 31%; inhibition at 0.1 µM: 78%; % Inhibition 1000 nm: 95%

**Q.** What does the source list for `CCS(=O)(=O)NC1CC2(C1)CC(N(C)c1ncnc3[nH]ccc13)C2` (stereo not drawn) [Compound 16, N-[2-[methyl(7H-pyrrolo[2,3-d]pyrimidin-4-yl)amino]spiro[3.3]heptan-6-yl]ethanesulfonamide]?
**A.** inhibition at 0.01 µM: 28%; inhibition at 0.1 µM: 76%; % Inhibition 1000 nm: 96%

**Q.** How did the inhibition at 0.01 µM turn out when `CCCS(=O)(=O)NC1CC2(C1)CC(N(C)c1ncnc3[nH]ccc13)C2` (stereo not drawn) [Compound 17, N-[2-[methyl(7H-pyrrolo[2,3-d]pyrimidin-4-yl)amino]spiro[3.3]heptan-6-yl]propane-1-sulfonamide] was run?
**A.** 38%

**Q.** And the inhibition at 0.1 µM?
**A.** 83%

**Q.** And the “% Inhibition 1000 nm” value?
**A.** 95%

**Q.** Which results are given for `CC(C)S(=O)(=O)NC1CC2(C1)CC(N(C)c1ncnc3[nH]ccc13)C2` (stereo not drawn) [Compound 18, N-[2-[methyl(7H-pyrrolo[2,3-d]pyrimidin-4-yl)amino]spiro[3.3]heptan-6-yl]propane-2-sulfonamide]?
**A.** inhibition at 0.01 µM: 23%; inhibition at 0.1 µM: 71%; % Inhibition 1000 nm: 94%

**Q.** How did the inhibition at 0.01 µM turn out when `CC(C)CS(=O)(=O)NC1CC2(C1)CC(N(C)c1ncnc3[nH]ccc13)C2` (stereo not drawn) [Compound 19, 2-methyl-N-[2-[methyl(7H-pyrrolo[2,3-d]pyrimidin-4-yl)amino]spiro[3.3]heptan-6-yl]propane-1-sulfonamide] was run?
**A.** 27%

**Q.** And the inhibition at 0.1 µM?
**A.** 73%

**Q.** And the “% Inhibition 1000 nm” value?
**A.** 94%

**Q.** Which results are given for `CN(c1ncnc2[nH]ccc12)C1CC2(CC(NS(=O)(=O)C3CCCC3)C2)C1` (stereo not drawn) [Compound 20, N-[2-[methyl(7H-pyrrolo[2,3-d]pyrimidin-4-yl)amino]spiro[3.3]heptan-6-yl]cyclopentanesulfonamide]?
**A.** inhibition at 0.01 µM: 33%; inhibition at 0.1 µM: 82%; % Inhibition 1000 nm: 97%
